Assay results as given in the NIST ThermoML archive (doi:10.1021/je901043q).

Experiments:
[1] = xn = mol fraction of the nth substance listed; details: 101 kPa, Liquid
[2] = 101 kPa, Liquid

CCCCn1cc[n+](C)c1.N#C[S-] [1-butyl-3-methylimidazolium thiocyanate] + CCCCCCCCCO
[1]
Details	mass density [kg/m3]	viscosity [mPa·s]
298.15 K, x1 = 0.1203	855.59	12.19
298.15 K, x1 = 0.2008	876.27	14.2
298.15 K, x1 = 0.2814	896.75	16.58
298.15 K, x1 = 0.3884	923.66	20.3
298.15 K, x1 = 0.5697	968.54	28.04
298.15 K, x1 = 0.6709	993.14	32.31
298.15 K, x1 = 0.7658	1015.88	–
298.15 K, x1 = 0.8618	1038.46	41.61
298.15 K, x1 = 0.9651	1062.11	46.89
298.15 K, x1 = 1	1069.79	51.74
308.15 K, x1 = 0.1203	848.88	8.664
308.15 K, x1 = 0.2008	869.7	10.14
308.15 K, x1 = 0.2814	890.24	11.81
308.15 K, x1 = 0.3884	917.27	14.3
308.15 K, x1 = 0.5697	962.4	19.35
308.15 K, x1 = 0.6709	987.05	22.23
308.15 K, x1 = 0.7658	1009.89	–
308.15 K, x1 = 0.8618	1032.53	27.8
308.15 K, x1 = 0.9651	1056.18	31.09
308.15 K, x1 = 1	1063.89	34.87
318.15 K, x1 = 0.1203	841.98	6.378
318.15 K, x1 = 0.2008	862.96	7.487
318.15 K, x1 = 0.2814	883.74	8.739
318.15 K, x1 = 0.3884	910.89	10.55
318.15 K, x1 = 0.5697	956.26	14.03
318.15 K, x1 = 0.6709	981.02	16.01
318.15 K, x1 = 0.7658	1003.93	–
318.15 K, x1 = 0.8618	1026.62	19.67
318.15 K, x1 = 0.9651	1050.33	21.81
318.15 K, x1 = 1	1058.02	24.19
328.15 K, x1 = 0.1203	835.4	4.782
328.15 K, x1 = 0.2008	856.36	5.662
328.15 K, x1 = 0.2814	877.25	6.629
328.15 K, x1 = 0.3884	904.56	8.032
328.15 K, x1 = 0.5697	950.15	10.61
328.15 K, x1 = 0.6709	975	12.04
328.15 K, x1 = 0.7658	998.03	–
328.15 K, x1 = 0.8618	1020.79	14.55
328.15 K, x1 = 0.9651	1044.5	16.06
328.15 K, x1 = 1	1052.19	16.7
338.15 K, x1 = 0.1203	828.56	3.695
338.15 K, x1 = 0.2008	849.77	4.408
338.15 K, x1 = 0.2814	870.73	5.139
338.15 K, x1 = 0.3884	898.2	6.237
338.15 K, x1 = 0.5697	944.06	8.26
338.15 K, x1 = 0.6709	969.04	9.33
338.15 K, x1 = 0.7658	992.15	–
338.15 K, x1 = 0.8618	1014.99	11.22
338.15 K, x1 = 0.9651	1038.73	12.32
338.15 K, x1 = 1	1046.43	12.73
348.15 K, x1 = 0.1203	821.64	2.971
348.15 K, x1 = 0.2008	843.14	3.521
348.15 K, x1 = 0.2814	864.18	4.102
348.15 K, x1 = 0.3884	891.86	4.962
348.15 K, x1 = 0.5697	937.98	6.512
348.15 K, x1 = 0.6709	963.09	7.404
348.15 K, x1 = 0.7658	986.31	–
348.15 K, x1 = 0.8618	1009.22	8.89
348.15 K, x1 = 0.9651	1032.99	9.74
348.15 K, x1 = 1	1040.7	9.98

CCCCCCCCCCO [decan-1-ol] + CCCCn1cc[n+](C)c1.N#C[S-]
[1], x2 = 0
Details	mass density [kg/m3]	viscosity [mPa·s]
298.15 K	826.38	11.09
308.15 K	819.53	7.632
318.15 K	812.62	5.375
328.15 K	805.61	3.928
338.15 K	798.48	2.964
348.15 K	791.21	2.399

CCCCCCCCO [octan-1-ol]
[2]
Details	mass density [kg/m3]	viscosity [mPa·s]
298.15 K	821.61	7.398
308.15 K	814.64	5.285
318.15 K	807.57	3.887
328.15 K	800.39	2.931
338.15 K	793.09	2.262
348.15 K	785.59	1.782

CCCCCCCCCO [nonan-1-ol] + CCCCn1cc[n+](C)c1.N#C[S-]
[1], x2 = 0
Details	mass density [kg/m3]	viscosity [mPa·s]
298.15 K	824.27	9.343
308.15 K	817.36	6.497
318.15 K	810.4	4.674
328.15 K	803.29	3.452
338.15 K	796.1	2.664
348.15 K	788.72	2.256

CCCCCCCO [heptan-1-ol]
[2]
Details	mass density [kg/m3]	viscosity [mPa·s]
298.15 K	818.81	5.851
308.15 K	811.73	4.26
318.15 K	804.55	3.184
328.15 K	797.22	2.434
338.15 K	789.75	1.9
348.15 K	782.08	1.512

CCCCn1cc[n+](C)c1.N#C[S-] [1-butyl-3-methylimidazolium thiocyanate]
[2]
Details	mass density [kg/m3]	viscosity [mPa·s]
298.15 K	1069.79	51.74
308.15 K	1063.89	34.87
318.15 K	1058.02	24.19
328.15 K	1052.19	16.7
338.15 K	1046.43	12.73
348.15 K	1040.7	9.98

CCCCCCCO [heptan-1-ol] + CCCCn1cc[n+](C)c1.N#C[S-]
[1], x2 = 0
Details	mass density [kg/m3]	viscosity [mPa·s]
298.15 K	818.81	5.851
308.15 K	811.73	4.26
318.15 K	804.55	3.184
328.15 K	797.22	2.434
338.15 K	789.75	1.9
348.15 K	782.08	1.512

CCCCCCCCCO [nonan-1-ol]
[2]
Details	mass density [kg/m3]	viscosity [mPa·s]
298.15 K	824.27	9.343
308.15 K	817.36	6.497
318.15 K	810.4	4.674
328.15 K	803.29	3.452
338.15 K	796.1	2.664
348.15 K	788.72	2.256

CCCCCCCCO [octan-1-ol] + CCCCn1cc[n+](C)c1.N#C[S-]
[1], x2 = 0
Details	mass density [kg/m3]	viscosity [mPa·s]
298.15 K	821.61	7.398
308.15 K	814.64	5.285
318.15 K	807.57	3.887
328.15 K	800.39	2.931
338.15 K	793.09	2.262
348.15 K	785.59	1.782

CCCCCCCCCCO [decan-1-ol]
[2]
Details	mass density [kg/m3]	viscosity [mPa·s]
298.15 K	826.38	11.09
308.15 K	819.53	7.632
318.15 K	812.62	5.375
328.15 K	805.61	3.928
338.15 K	798.48	2.964
348.15 K	791.21	2.399
